Several values for one entry are separate records, joined by “and”; a condition that tells them apart may be missing. Equal entries are not always repeated. Entries after “also recorded” stand apart in the source; their conditions may differ.
Legend:
B-Raf 600E cells = assay: 4-day proliferation assay, B-Raf 600E NIH-3T3 cells; format: cell-based, mouse; conditions: 2, 3, or 4 nM romidepsin
Procedure: (§1) A series of transformed NIH-3T3 cell likes were generated and a proliferation assay was performed in the presence of 2, 3, or 4 nM romidepsin. FIG. 23 illustrates the transformed morphology of the cells. FIG. 24 presents graphs of cell proliferation.

[1] = PANC-1 study: animal weight and drug toxicity
Source text: Model Information—Female nude mice (nu/nu) between 5 and 6 weeks of age weighing approximately 20 grams were obtained from Harlan, Inc. (Madison, Wis.). PANC-1, obtained from the ATCC, is a pancreas tumor cell line originating from a person^(1-2). BxPC-3, obtained from the American Type Culture Collection (ATCC), is a pancreas tumor cell line originating from a person^(3-4). PANC-1 Study: Animals were implanted subcutaneously (SC) by trocar with fragments of PANC-1 harvested from SC growing tumors in nude mice hosts. When tumors grew to approximately 135 cubic millimeters (mm^3) in size (17 days following implantation, animals were pair-matched by tumor size into treatment and control groups; each treatment group contained nine mice. BxPC-3 Study: Animals were implanted subcutaneously (SC) by trocar with fragments of BxPC-3 harvested from SC growing tumors in nude mice hosts. When tumors grew to approximately 85 cubic millimeters (mm^3) in size (19 days following implantation), animals were pair-matched by tumor size into treatment and control groups; each treatment group contained nine mice. Animals in both studies were ear-tagged and followed individually throughout the experiment.
Study Design and Dosing—Initial doses were administered on Day 1 following pair-matching; both experiments were carried out as tumor growth inhibition (TGT) studies. Animals were dosed intravenously (IV) via tail vein with FK228 once every four days for three treatments (Q4Dx3) or by intraperitoneal (IP) injection with gemcitabine once every three days for four treatments (Q3Dx4), either alone or in combination, at the doses listed below (Table 1). To serve as a negative control, FK228 vehicle (2% ethanol, 8% propylene glycol, 90% 0.9% saline) was injected on a Q4Dx3 schedule.
Animal Weights—Individual and group mean weights ±SD and percent weight change through Day 25 (PANC-1) or Day 29 (BxPC-3) were recorded twice weekly until study completion beginning Day 1. Final group mean weights ±SD and group nadir values are reported; weight data from individual animals experiencing technical or drug-related deaths was censored from final group calculations.
Moribundity/Mortality—Animals were observed twice weekly for general moribundity and daily for mortality. Animal deaths were assessed as drug-related or technical based on factors including gross observation and weight loss; reported animal death information includes type, number, and day of death for each group.
Statistics—Statistical analyses were carried out between treated and control groups comparing final weight, percent weight change, and tumor growth inhibition (Appendix III). For these groups, a two-tailed One-Way Analysis of Variance (ANOVA) followed by the Dunnett multiple comparisons test was employed. All analyses are performed using GraphPad Prism® software (version 4.0). Weight and tumor data from individual animals experiencing technical or drug-related deaths was censored from analysis.

[2] = test system: NIH-3T3 cells transformed by H, K, N-Ras and the rat Her-2/NeuT; assay: 4-day proliferation assay, transformed NIH-3T3 cell lines; format: cell-based, mouse; conditions: 2 nM romidepsin
Procedure: as §1

p21^waf = assay: Immunoblot of p21^waf in PANC-1 xenograft tumors; format: in vivo, human; conditions: FK228 5 mg/kg Q4Dx3; gemcitabine 80 mg/kg Q3Dx4; tumors at study completion; vs controls
Procedure: Abstract: To examine activity and mechanism of FK228, antitumor efficacy was tested in PANC-1 pancreatic adenocarcinoma model representing transformed Ras, either as a single agent or in combination with gemcitabine. Following PANC-1 study completion, tumor and sera were obtained from: • the vehicle control; • FK228 dosed at 5 mg/kg once every four days for three treatments (Q4Dx3); • Gemcitabine at 80 mg/kg (Q3Dx4); and • the drug combination. Expression of c-Myc, acetylated histones 3 and 4, and p21^waf1 was compared between control and FK228 groups by immunoblotting and was quantified following actin normalization. Serum levels of putative tumor products b-FGF and MMP-2 were quantified by human-specific ELISA. […]
Tissue Biomarkers: Tumor levels of acetylated histone-4, histone-4, c-Myc, p21waf and β-actin were quantified by immunoblotting as described. […] The chemiluminescence signal was captured by autoradiography, quantified by densitometry and expressed as a ratio of actin in each sample lane. For each biomarker, means and standard errors were calculated in each treatment group. […]
Expression of c-Myc, acetylated histones 3 and 4, and p21^waf1 was compared between control and FK228 groups by immunoblotting and was quantified following actin normalization. Serum levels of putative tumor products b-FGF and MMP-2 were quantified by human-specific ELISA. […]

[3] = FK228 2.5 mg/kg IV Q4Dx3, 2.5 mg/kg
[4] = FK228 5 mg/kg IV Q4Dx3, 5 mg/kg

## C/C=C1\NC(=O)[C@H]2CSSCC/C=C/[C@H](CC(=O)N[C@H](C(C)C)C(=O)N2)OC(=O)[C@H](C(C)C)NC1=O [FK228, romidepsin]
B-Raf 600E cells
  potency on B-Raf 600E cells: not potent
[1]; FK228 2.5 mg/kg IV Q4Dx3
  FINAL WEIGHT (DAY 25) % CHANGE: +8%
  WEIGHT NADIR % CHANGE: −9%
  WEIGHT NADIR DAY: 11
[1]; [3]
  DRUG DEATHS TOTAL: 0/9 and 0
  FINAL WEIGHT (DAY 25) MEAN(G) ± SD: 21 ± 2 G
[1]; FK228 5 mg/kg IV Q4Dx3
  FINAL WEIGHT (DAY 25) % CHANGE: +9%
  WEIGHT NADIR % CHANGE: −12%
  WEIGHT NADIR DAY: 11
[1]; [4]
  DRUG DEATHS TOTAL: 0/9 and 0
  FINAL WEIGHT (DAY 25) MEAN(G) ± SD: 25±2 G
[2]
  proliferation of transformed vs untransformed cells: selectively inhibited

## Nc1ccn([C@@H]2O[C@H](CO)[C@@H](O)C2(F)F)c(=O)n1 [Gemcitabine, gemcitabine]
[1]; Gemcitabine 40 mg/kg IP Q3Dx4
  DRUG DEATHS TOTAL: 0/9 and 0
  FINAL WEIGHT (DAY 25) % CHANGE: +7%
  FINAL WEIGHT (DAY 25) MEAN(G) ± SD: 24±1 G
  WEIGHT NADIR % CHANGE: −2%
  WEIGHT NADIR DAY: 11
[1]; Gemcitabine 80 mg/kg IP Q3Dx4
  DRUG DEATHS TOTAL: 0/9 and 0
  FINAL WEIGHT (DAY 25) % CHANGE: +12%
  FINAL WEIGHT (DAY 25) MEAN(G) ± SD: 26±3 G
  WEIGHT NADIR % CHANGE: −3%
  WEIGHT NADIR DAY: 11
p21^waf
  p21^waf expression: downregulated; also recorded: down-regulated

Reference: patent US20100137239A1, “GEMCITABINE COMBINATION THERAPY” (GLOUCESTER PHARMACEUTICALS, priority 2006, published 2010)
